Assay [1] relates to interferon-stimulated gene (ISG) response. Put plainly: In vivo decitabine challenge model in C57BL/6 mice (ISG response). The arrangement: species or system mouse. The following applies: decitabine i.p. 5 mg/kg, compound p.o. 0.6, 2.0, 6.0 mg/kg daily Day 0 to Day 4, IFIT2 v. GAPDH. The procedure:
Exemplary compounds were tested for ability to alter the interferon-stimulated gene (ISG) response in C57BL/6 mice treated with decitabine. Assay procedures and results are described below. Twenty 9-11 week old C57BL/6 mice were acclimated to the lab for at least 5 days. Compound 23 was prepared in a 0.5% methylcellulose solution for p.o. administration. Decitabine (Sigma-Aldrich) was dissolved in sterile PBS (pH 7.4) and dosed within 30 minutes of preparation of the solution. Doses of both the compound and decitabine were administered once a day, every day from Day 0 to Day 4. On Day 0, mice were split into five groups of five mice and given their first dose of decitabine (i.p., 5 mg/kg) and compound 23. Dosing groups were: Decitabine and compound 23 were administered daily from Day 0 to Day 4. All mice were euthanized 1 hour after the last dose administration on Day 4. Spleens, liver, and terminal colon were collected, along with plasma from each animal. The fold changes in interferon-stimulated gene (ISG) expression was calculated by first normalizing to GAPDH gene using the Delta CT method. The CT (gene of interest)—CT (reference gene) was calculated to generate a delta CT for all samples. The fold change was then calculated by taking the Log2(Delta CT(control)—Delta CT (experimental). The control in this example was the PBS control animal group. The Taqman duplex assay was used to determine levels of GAPDH v. IFIT2. Twenty 9-11 week old C57BL/6 mice were acclimated to the lab for at least 5 days. Compound 2 was prepared in 20% PEG400 in PBS (final pH 4.5) for p.o. administration. Decitabine (Sigma) was dissolved in sterile PBS (pH 7.4) and dosed within 30 minutes of preparation of the solution. Doses of both Compound 2 and decitabine were administered once a day. On Day 0, mice were split into five groups of five mice and given their first dose of decitabine and Compound 2. […] The fold changes in interferon-stimulated gene (ISG, specifically IRF7 and MX1) expression was calculated by first normalizing to GAPDH gene using the Delta CT method. […]

The subject of a further assay is human PBMC. Put plainly: Decitabine-stimulated human PBMC assay (IFN-β, cell viability). Format: cell-based. The following applies: anti-CD3/anti-CD28, decitabine 10 μM, 5 days. The protocol:
EasySep buffer (32 mL, […] Technologies, cat. #20144) was used to dilute 8 mL of LRSC buffy coat (from fresh Leukopak) with gentle mixing. The diluted buffy coat (20 mL) was transferred into each of two SepMate 50 tubes, and the tubes were filled with 15 mL of Lyphoprep ([…], cat. #07851) density gradient. The SepMate tubes were then centrifuged at 1200G for 10 minutes at room temperature with the brake on. The top layer of supernatant was collected in SepMate tubes by quickly pouring it into a new 50 mL conical tube. The PBMCs were washed with EasySep buffer ×2 by centrifuging at 300G for 5 minutes. The cells were resuspended in 30 mL of EasySep and centrifuged at 100G for 5 minutes with the brake off, and the platelets were removed. The cells were then resuspended in 6 mL of 1×RBC lysis buffer (Invitrogen) and incubated at 37° C. for 5 minutes. 25 mL of EasySep buffer was then mixed into the tube and centrifuged at 300G for 5 minutes. The cells were resuspended in 10 mL of EasySep buffer and the cells were then counted with Cellometer (AO/PI). The PBMCs were resuspended in RPMI1640 (ThermoFisher)^+10% FBS (HyClone)^+μ/s at 3×10^6/mL. The PBMCs (100 μL, 300 k PBMCs) were then seeded in a 96-well flat bottom microplate (Corning) that had been precoated with 100 μL of anti-CD3 antibody (10 μg/mL in PBS, Biolegend) or PBS at 4° C., one day before the assay was commenced.
To each well the following solutions were added 1) 100 μL of cells (final cell number per well is 3×10^5 cell/well); 2) 25 μL of anti-CD28 antibody at 6×(5 μg/mL final concentration, Biolegend); 3) 25 μL of decitabine at 6×(10 μM final concentration); and 4) Compound in DMSO was dispensed directly into each well with a d300e digital dispenser (Tecan). The final concentration of DMSO for each well was normalized to 0.3%. The plate was incubated at 37° C. without any agitation for 5 days. Samples were collected 120 hours after incubation to determine IFN-0 and IL-2 levels using a U-PLEX Human IFN-β Assay Sector (5PL) (MSD, cat. #K151VIK-2).
After 5 days, the plate was spun down at 100×G for 5 minutes. Supernatants (100 μL) were collected for interferon β(IFN-β) analysis using the MSD assay noted above, and any residual supernatant was stored at −80° C.

The target in assay [2] is T1, LINE1 reverse transcriptase (Homo sapiens, UniProt O00370).
T1 construct: expressed in transfected cells; host or cells: HeLa Tet-On 3G (Takara, cat no 631183)
The experiment in a line: Stable artificial-intron Cis LINE1 reporter assay (HeLa Tet-On 3G, Firefly luciferase). Format: cell-based. The note with it: HeLa L1 artificial-intron reporter cells, doxycycline 500 ng/mL, 72 h, class symbols. The essentials:
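HeLa Tet-On 3G clone stably carrying a bi-directional doxycycline-inducible artificial-intron LINE1 reporter, plated at 8,000 cells/well onto serially diluted compound. Expression induced with 500 ng/mL doxycycline (final); Firefly luciferase luminescence (Dual-Glo) read 72 h after plating as LINE1 activity.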
A general note: A reporter such as luciferase makes a cellular process visible.

Assay [3] has as its target T2, HERV-K reverse transcriptase (Homo sapiens, UniProt V9H0F6).
T2 construct: fused on or other part: C-terminal 8xHis tag
Put plainly: Homogeneous time-resolved fluorescence (HTRF) HERV-K RT assay. Format: biochemical. The note with it: triphosphate analogs, HERV-K enzyme 16 ng/well, 25° C. 30 minutes. The procedure:
Exemplary triphosphate analogs were tested for ability to inhibit HERV-K reverse transcriptase using a homogeneous time-resolved fluorescence (HTRF) assay. Assay procedures and results are described below.
The HERV-K reverse transcriptase homogeneous time-resolved fluorescence (HTRF) assay was performed in a 384-well format with HERV-K reverse transcriptase (2-596)-8His protein. Baculoviruses were created using Bac-to-Bac technology (Invitrogen). pFastflac donor plasmids containing HERV-K reverse transcriptase sequence (NCBI GenBank number AAC63291.1, J. Virology (1999) Vol. 73, No. 3, pp. 2365-2375) were transformed into DH10 Bac cells following the manufacturer's instructions. Recombinant bacmids were then isolated clonally and transfected into SF9 cells with lipofectin. HERV-K reverse transcriptase was expressed in the SF9 insect cells and then purified using immobilized metal affinity chromatography (IMAC) followed by size-exclusion chromatography (SEC).
Test compound was serially diluted in DMSO and further diluted in the assay buffer (50 mM Tris-HCl, 50 mM KCl, 10 mM MgCl2, 10 mM DTT, pH 8.1) to achieve a final DMSO concentration of 1%. The serially diluted compound was mixed with 16 ng/well of HERV-K enzyme, 5 nM of pre-annealed template/biotin-primer pair (synthesized at Geneway Biotechnology), 10 nM of Fluorescein-12-dCTP fluorescent probe (PerkinElmer), and 1 mM dGTP, dATP, and DTTP (ThermoFisher). The template/biotin-primer sequences were:
After incubating at 25° C. for 30 minutes, the detection reagent 20 mM EDTA with streptavidin-terbium cryptate (Cisbio Bioassay) in the PPI buffer (Cisbio Bioassay) was added, and the mixture was incubated at 25° C. for 60 minutes. At the end of the incubation, fluorescence was read at ex/em=337/485 nm and ex/em=337/520 nm on an Envision 2104 plate reader (PerkinElmer). The fluorescence ratio at 520/485 nm was used for the calculation. […] IC50 values were calculated by fitting the compound dose inhibition curve with a 4-parameter non-linear regression equation.
(Time-resolved FRET reads energy transfer from a long-lived donor to a nearby acceptor.)

In assay [4] the target is T3, LINE1 reverse transcriptase (recombinant MBP-tagged LINE1 protein (238-1061)) (Homo sapiens, UniProt O00370).
T3 construct: recombinant MBP-tagged LINE1 protein (238-1061); made in house
Put plainly: Homogeneous time-resolved fluorescence (HTRF) LINE1 RT assay. Format: biochemical. The note with it: triphosphate analogs, LINE1 enzyme 64 ng/well, 25° C. 60 minutes. The protocol:
Exemplary triphosphate analogs were tested for the ability to inhibit LINE1 reverse transcriptase using a homogeneous time-resolved fluorescence (HTRF) assay. Assay procedures and results are described below.
The LINE1 reverse transcriptase homogeneous time-resolved fluorescence (HTRF) assay was performed with recombinant MBP-tagged LINE1 protein (238-1061) (generated and purified according to procedures in Dai L. et al. BMC Biochemistry 2011; 12:18) in a 384-well format. Test compound was serially diluted in DMSO and further diluted in the assay buffer (50 mM Tris-HCl, 50 mM KCl, 10 mM MgCl2, 10 mM DTT, pH 8.1) to achieve a final DMSO concentration of 1%. The serially diluted compound was mixed with 64 ng/well of LINE1 enzyme, 5 nM of pre-annealed template/biotin-primer pair (synthesized at Generay Biotechnology), 10 nM of Fluorescein-12-dCTP fluorescent probe (PerkinElmer), and 1 μM dGTP/dATP/dTTP (ThermoFisher Scientific) in the assay buffer. The template/biotin-primer sequences were as follows:
After incubating at 25° C. for 60 minutes, the detection reagent (20 mM EDTA with streptavidin-terbium cryptate, Cisbio Bioassay) in the PPI buffer (Cisbio Bioassay) was added, and the mixture was incubated at 25° C. for 30 minutes. At the end of the incubation, fluorescence was read at ex/em=337/485 nm and ex/em=337/520 nm on an Envision 2104 plate reader (PerkinElmer). The fluorescence ratio at 520/485 nm was used for the calculation. […] The IC50 was calculated by fitting the compound dose inhibition curve with a 4-parameter non-linear regression equation.

One may read the IC50 as the concentration that inhibits the measured activity by half.

Structures are written as SMILES.

T2 sequence (V9H0F6 entry or part of it): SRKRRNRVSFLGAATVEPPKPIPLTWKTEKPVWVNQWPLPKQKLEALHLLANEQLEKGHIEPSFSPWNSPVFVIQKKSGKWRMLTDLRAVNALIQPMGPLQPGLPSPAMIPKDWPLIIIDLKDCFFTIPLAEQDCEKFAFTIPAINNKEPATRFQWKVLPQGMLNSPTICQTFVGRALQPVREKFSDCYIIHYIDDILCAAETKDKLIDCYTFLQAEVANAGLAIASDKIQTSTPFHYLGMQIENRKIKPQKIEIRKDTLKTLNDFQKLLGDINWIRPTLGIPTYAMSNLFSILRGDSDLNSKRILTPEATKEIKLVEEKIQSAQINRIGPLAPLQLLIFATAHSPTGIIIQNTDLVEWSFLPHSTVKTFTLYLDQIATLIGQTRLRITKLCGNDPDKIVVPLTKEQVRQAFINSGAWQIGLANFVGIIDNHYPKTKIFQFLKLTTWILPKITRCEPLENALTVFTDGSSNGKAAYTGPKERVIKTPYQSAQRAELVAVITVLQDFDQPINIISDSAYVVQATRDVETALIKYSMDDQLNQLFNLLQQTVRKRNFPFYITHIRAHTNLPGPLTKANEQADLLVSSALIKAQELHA

`C#C[C@]1(CO)O[C@@H](n2cnc3c(N)nc(F)nc32)C[C@@H]1O` [Compound 23, (2R,3S,5R)-5-(6-amino-2-fluoro-9H-purin-9-yl)-2-ethynyl-2-(hydroxymethyl) tetrahydrofuran-3-ol]: the “change in interferon-stimulated gene (ISG) response (FIG. 2A)” value in assay [1] was “change in ISG response”. Further, the IFN-β level entry in the assay on human PBMC is given as “activated production of IFN-β”. In assay [2], this molecule had an IC50 of at most 0.05 µM.
For the molecule `Nc1nc(=O)n([C@@H]2O[C@](CBr)(COP(=O)(O)OP(=O)(O)OP(=O)(O)O)[C@@H](O)[C@@H]2F)cc1F` [Compound 86-TP, ((2R,3R,4S,5R)-5-(4-amino-5-fluoro-2-oxopyrimidin-1(2H)-yl)-2-(bromomethyl)-4-fluoro-3-hydroxytetrahydrofuran-2-yl) methyl tetrahydrogen triphosphate; tetrakis(triethylamine)], the IC50 in assay [3] is above 10 µM; in assay [4], 1.61 µM.
Regarding `C#C[C@]1(CO)O[C@@H](n2cnc3c(N)nc(Cl)nc32)C[C@@H]1O` [Compound 25, (2R,3S,5R)-5-(6-amino-2-chloro-9H-purin-9-yl)-2-ethynyl-2-(hydroxymethyl) tetrahydrofuran-3-ol], in the assay with human PBMC, the IFN-β level entry is recorded as “activated production of IFN-β”. Moreover, the IC50 in assay [2] is at most 0.05 µM.
Regarding `Nc1nc(=O)n([C@H]2C[C@H](O)[C@](CO)(C(F)F)O2)cc1F` [Compound 65, 4-amino-1-[(2R,4S,5R)-5-(difluoromethyl)-4-hydroxy-5-(hydroxymethyl)oxolan-2-yl]-5-fluoropyrimidin-2-one], the IC50 in assay [2] is at most 0.05 µM.
Still for that read-out and setting: under `Nc1nc(=O)n([C@H]2C[C@H](O)[C@](CO)(C3CC3)O2)cc1F` [Compound 120, 4-amino-1-[(2R,4S,5R)-5-cyclopropyl-4-hydroxy-5-(hydroxymethyl)oxolan-2-yl]-5-fluoropyrimidin-2-one] stands 0.25 to 1 µM.

Source of the values: patent publication US20230295212A1 (ROME Therapeutics, Inc., priority 2022, published 2023).
